Results taken from publication PMC2996141 (Journal of chemical information and modeling, 2010).
“Also recorded” adds a separate entry of the source. Like-named read-outs stand apart in the source and are kept apart here. One block for each compound: values may come before it.

Assays:
cell growth = details: cited from earlier work
[1] = target: microtubules (laulimalide/peloruside A site) (Bos taurus, UniProt Q6B856); experiment: Inhibition of [^3H]peloruside A binding to microtubules; parameters: species or system Bovine; details: for inhibition at 20 µM: read-out: % inhibition ± SD, radiolabeled ligand [^3H]peloruside A; for % inhibition ± SD, radiolabeled ligand [^3H]peloruside A: 2.0 µM tubulin as microtubules, radiolabeled ligand 4.0 µM, inhibitor 20 µM; for type of inhibition of [^3H]peloruside A binding: Hanes analysis; for Ki: read-out: apparent Ki, inhibition of [^3H]peloruside A binding, Dixon analysis, competitive
microtubules (laulimalide/peloruside A site), sequence (Q6B856 whole entry): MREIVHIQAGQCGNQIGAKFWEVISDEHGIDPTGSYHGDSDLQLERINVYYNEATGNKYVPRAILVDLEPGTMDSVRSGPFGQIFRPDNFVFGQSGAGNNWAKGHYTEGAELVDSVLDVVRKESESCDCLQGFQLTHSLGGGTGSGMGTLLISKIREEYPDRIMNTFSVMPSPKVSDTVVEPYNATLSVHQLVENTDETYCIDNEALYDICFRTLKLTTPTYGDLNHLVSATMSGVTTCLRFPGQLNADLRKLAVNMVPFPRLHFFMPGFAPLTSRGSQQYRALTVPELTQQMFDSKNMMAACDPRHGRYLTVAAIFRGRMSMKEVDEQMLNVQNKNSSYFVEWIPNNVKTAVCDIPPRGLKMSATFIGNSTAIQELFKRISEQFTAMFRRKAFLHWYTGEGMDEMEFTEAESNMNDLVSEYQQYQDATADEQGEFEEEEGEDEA
microtubules (laulimalide/peloruside A site), sequence (P81947 whole entry partner): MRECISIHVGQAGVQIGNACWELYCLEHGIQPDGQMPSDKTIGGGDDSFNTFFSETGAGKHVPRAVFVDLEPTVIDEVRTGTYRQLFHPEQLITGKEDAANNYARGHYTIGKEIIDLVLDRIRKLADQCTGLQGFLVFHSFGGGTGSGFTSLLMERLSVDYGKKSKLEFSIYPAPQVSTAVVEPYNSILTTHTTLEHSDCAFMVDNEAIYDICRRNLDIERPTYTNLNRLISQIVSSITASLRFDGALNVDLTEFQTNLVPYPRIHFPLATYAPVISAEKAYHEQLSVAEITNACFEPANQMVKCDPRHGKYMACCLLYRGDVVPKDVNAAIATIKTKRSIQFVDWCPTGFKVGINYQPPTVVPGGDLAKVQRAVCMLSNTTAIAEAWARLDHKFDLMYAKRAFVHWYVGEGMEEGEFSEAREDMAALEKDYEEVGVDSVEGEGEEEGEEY

[2] = test system: microtubules (taxoid site); experiment: Inhibition of [^3H]paclitaxel binding to microtubules; parameters: species or system Bovine; details: for % inhibition ± SD, radiolabeled ligand [^3H]paclitaxel: 2.0 µM tubulin as microtubules, radiolabeled ligand 4.0 µM, inhibitor 20 µM
[3] = target: T1, tubulin polymer (microtubules) (Bos taurus, UniProt Q6B856); experiment: Binding of [^3H]paclitaxel to preformed tubulin polymer, Scatchard analysis; parameters: species or system Bovine
T1 sequence (Q6B856 whole entry): as the sequence (Q6B856 whole entry) above
T1 sequence (P81947 whole entry partner): as the sequence (P81947 whole entry partner) above

[4] = target: T1, tubulin polymer (microtubules); experiment: Binding of [^3H]peloruside A to preformed tubulin polymer, Scatchard analysis; parameters: species or system Bovine

Compound: C=C1C[C@H](C)C[C@@H]2CC=C[C@@H](C/C=C\C(=O)O[C@@H](/C=C/[C@@H]3CC(C)=CCO3)[C@@H](O)C[C@@H]3O[C@H]3[C@@H](O)C1)O2 [compound 13, neolaulimalide]
activity in cells and with tubulin relative to laulimalide (cell growth; ref Gollner et al. 41): equivalent to that of laulimalide

Compound: C=C/C=C\[C@H](C)[C@H](OC(N)=O)[C@@H](C)[C@H](O)[C@@H](C)C/C(C)=C\[C@H](C)[C@@H](O)[C@@H](C)/C=C\[C@@H](O)C[C@@H]1OC(=O)[C@H](C)[C@@H](O)[C@H]1C [discodermolide]
ability to inhibit [^3H]peloruside A binding (words) [1]: essentially no ability to inhibit; also recorded: little activity | inhibition at 20 µM [1]: 5 ± 2% | ability to inhibit [^3H]paclitaxel binding [2]: strong inhibitors | % inhibition ± SD, radiolabeled ligand [^3H]paclitaxel [2]: 87 ± 2%

Compound: C/C(=C\c1csc(C)n1)[C@@H]1C[C@@H]2O[C@]2(C)CCC[C@H](C)[C@H](O)[C@@H](C)C(=O)C(C)(C)[C@@H](O)CC(=O)O1 [epothilone B]
ability to inhibit [^3H]peloruside A binding (words) [1]: essentially no ability to inhibit; also recorded: little activity | inhibition at 20 µM [1]: 2.2 ± 5% | ability to inhibit [^3H]paclitaxel binding [2]: strong inhibitors | % inhibition ± SD, radiolabeled ligand [^3H]paclitaxel [2]: 79 ± 5%

Compound: C=C1C[C@H](C)C[C@@H]2CC=C[C@@H](C/C=C\C(=O)O[C@H]([C@@H](O)/C=C/[C@@H]3CC(C)=CCO3)C[C@@H]3O[C@H]3[C@@H](O)C1)O2 [laulimalide]
ability to inhibit [^3H]peloruside A binding (words) [1]: inhibitory; also recorded: potent competitive inhibitor | % inhibition ± SD, radiolabeled ligand [^3H]peloruside A [1]: 90 ± 0.1% | type of inhibition of [^3H]peloruside A binding [1]: competitive inhibitor | Ki [1]: 250 nM | ability to inhibit [^3H]paclitaxel binding [2]: essentially inactive | % inhibition ± SD, radiolabeled ligand [^3H]paclitaxel [2]: 1.7 ± 5%

Kd [3]: 240 nM | ability to inhibit [^3H]peloruside A binding (words) [1]: little activity | ability to inhibit [^3H]peloruside A binding (words) ([1]; listed as Paclitaxel): essentially no ability to inhibit | inhibition at 20 µM [1]: 6.8 ± 0.5%
Compound: CC(=O)O[C@H]1C(=O)[C@@]2(C)[C@H]([C@H](OC(=O)c3ccccc3)[C@]3(O)C[C@H](OC(=O)[C@H](O)[C@@H](NC(=O)c4ccccc4)c4ccccc4)C(C)=C1C3(C)C)[C@]1(OC(C)=O)CO[C@@H]1C[C@@H]2O [paclitaxel]

Compound: CC[C@@H](/C=C(/C)[C@H]1C[C@H](OC)C[C@@H](O)C(C)(C)[C@]2(O)O[C@H](C[C@H](OC)[C@@H](O)C(=O)O1)C[C@H](OC)[C@@H]2O)CO [peloruside A]
number of binding sites per tubulin αβ-dimer in microtubules [4]: one binding site | % inhibition ± SD, radiolabeled ligand [^3H]paclitaxel [2]: 5.1 ± 6%

Compound: CC[C@H](/C=C(/C)[C@@H]1C[C@@H](OC)C[C@H](O)C(C)(C)[C@@]2(O)O[C@@H](C[C@@H](O)[C@H](O)C(=O)O1)C[C@@H](OC)[C@H]2O)CO [peloruside B]
cytotoxicity relative to peloruside A (cell growth): about three-fold less cytotoxic

Compound: (11-R)-peloruside A
ability to inhibit [^3H]peloruside A binding (words) [1]: inhibitory | % inhibition ± SD, radiolabeled ligand [^3H]peloruside A [1]: 49 ± 1% | type of inhibition of [^3H]peloruside A binding [1]: competitive inhibitors | Ki [1]: 9300 nM | ability to inhibit [^3H]paclitaxel binding [2]: essentially inactive | % inhibition ± SD, radiolabeled ligand [^3H]paclitaxel [2]: 0 ± 8%
